The record followed here is publication PMC12428554, “Anti-HIV and Antimicrobial Activity of 7-Hydrazino-8-hydroxyquinoline-Based Aromatic Hydrazones” (International Journal of Molecular Sciences, 2025).

Structures are written as SMILES. In brackets after ≈: the same amount, converted by molar mass.

One data set is described as follows: MTT cytotoxicity assay. It is filed as cell-based. The following applies: human, Huh-7.5 cells. The protocol: Huh7.5 cells were grown in the DMEM/F12 (2:1) medium supplemented with 10% FBS (BioSera, Cholet, France), 2 mM L-glutamine, 100 U/mL penicillin, and 100 µg/mL streptomycin in the presence of 5% CO2 at 37 °C. Cells were re-seeded every three days at a ratio of 1:3 or 1:5. Stock solutions were diluted in DMSO (BioReagent of molecular biology grade, Sigma, St. Louis, MO, USA), and the final DMSO concentration was 1%. After 24 h (30–40% monolayer), the solutions of the studied compounds diluted at different concentrations were introduced to the culture medium. After incubation at 37 °C in 5% CO2 for 48 h, a freshly prepared solution of thiazolyl blue tetrazolium bromide at a final concentration of 0.4 mg/mL was added to each well of the plate. Incubation was performed at +37 °C for 2 h. The medium containing unreacted MTT was removed via aspiration. The formed formazan dye was dissolved in 100 µL of isopropanol added to each well of the plate. The result of the analysis was evaluated using a Tecan Spark multimode microplate reader (Tecan Group Ltd., Männedorf, Switzerland) via absorbance at 544 nm.
(Tetrazolium dyes change colour on reduction, which living cells bring about.)

The nature of data set [1]: Water solubility and stability of hydrazones and alginate microgels. Format: physicochemical. The conditions noted are these: preliminary studies. The procedure: The expected mass loading of microgels was 33% (5.0 mg of alginate + 2.5 mg of a sample). A solution of sodium alginate was prepared at a concentration of 3.0 mg/mL. 1.700 mL of sodium alginate solution and 3.283 mL of distilled water were added to the beaker and an equimolar copper sulfate solution (17.0 μL) was added dropwise and stirred for 30 min. Then, concentrated hydrochloric acid was dissolved in 250 μL of the polymer solution for 20 min while heating to 50 °C until the solid residue was completely dissolved. The resulting solution of I was added dropwise to the Cu^2+–alginate microgel solution and stirred for 24 h; then, the acid was neutralized with a concentrated NaOH aq. solution. The resulting solutions were purified using flow dialysis. Microgels with substances were lyophilized until a fully dry pinkish powder was obtained.

With `Oc1c(N/N=C/c2ccccc2)ccc2cccnc12` [Compound I, 7-(2-Benzylidenohydrazinyl)-8-hydroxyquinoline], the half-maximal cytotoxic concentration (CC50) (in general, the concentration giving 50% cytotoxicity) at 48 h in the data set “MTT cytotoxicity assay” is 50.5 ± 2.5 µM. For the same compound, in data set [1], the solubility (usually the concentration that dissolves in the medium under given conditions) was around 2300 µg/mL (≈ 8.74 mM).

`O=[N+]([O-])c1ccc(/C=N/Nc2ccc3cccnc3c2O)cc1` [II, 7-(4-Nitrobenzylidenohydrazinyl)-8-hydroxyquinoline]: in the data set “MTT cytotoxicity assay”, the CC50 at 48 h worked out at 123 ± 13.2 µM.

The compound `O=[N+]([O-])c1cccc(/C=N/Nc2ccc3cccnc3c2O)c1` [III, 7-(3-Nitrobenzylidenohydrazinyl)-8-hydroxyquinoline] yielded a CC50 at 48 h in the data set “MTT cytotoxicity assay” of 38 ± 9.1 µM.

`COc1ccc(/C=N/Nc2ccc3cccnc3c2O)cc1` [IV, 7-(4-Methoxybenzylidenohydrazinyl)-8-hydroxyquinoline] came in with a CC50 at 48 h in the data set “MTT cytotoxicity assay” of 47 ± 3.2 µM.

Regarding `Oc1c(N/N=C/c2ccc(Br)c(Br)c2)ccc2cccnc12` [V, 7-(3,4-Dibromobenzylidenohydrazinyl)-8-hydroxyquinoline], the CC50 at 48 h in the data set “MTT cytotoxicity assay” is 120 ± 7.5 µM. This CC50 at 48 h is about 2.6-fold higher than that of the compound before.

For the compound `Oc1c(N/N=C/c2ccc(F)cc2)ccc2cccnc12` [VI, 7-(4-Fluorobenzylidenohydrazinyl)-8-hydroxyquinoline], the CC50 at 48 h in the data set “MTT cytotoxicity assay” is 45.5 ± 3.6 µM.
